The values that follow come from US5591837A, “5-O-desosaminylerythronolide a derivative” (Taisho Pharmaceutical Co., Ltd., priority 1992, dated 1997).

One data set deals with S. aureus 209P-JC. Kind of data set: In vitro antibacterial activity (MIC), S. aureus 209P-JC. The class given is cell-based. As to conditions: Staphylococcus aureus, read-out: MIC value (Minimum Inhibitory Concentration). The method, then:
(§1) The in vitro antibacterial activity of the compound of the present invention against various experimental microorganism was measured using sensitive disc media (produced by Eiken Chemical Co.) according to the MIC measuring method specified by the Japan Chemotherpeutic Society. Comparative drug 1:3-deoxy-11-{2-[methyl(benzyl)amino]ethyl}amino-3-oxo-5-O-desosaminyl-6-O-methylerythronolide A 11-N,12-O-cyclic carbamate (described in EP patent No. 0487411), Comparative drug 2:3-deoxy-3-oxo-5-O-desosaminyl-6-O-methylerythronolide A 11,12-cyclic carbonate (described in EP patent No. 0487411), Comparative drug 3:6-O-methylerythromycin A and Comparative drug 4:azithromycin were used.

Data set [1] concerns S. aureus Smith 4. Kind of data set: In vitro antibacterial activity (MIC), S. aureus Smith 4. The class given is cell-based. As to conditions: Staphylococcus aureus. The method, then:
as §1

The test system of a further data set is S. aureus B1. Nature of the data set: In vitro antibacterial activity (MIC), S. aureus B1. It is filed as cell-based. As to conditions: Staphylococcus aureus. The method, then:
as §1

A further data set has as its system H. influenzae ATCC19418. Nature of the data set: In vitro antibacterial activity (MIC), H. influenzae ATCC19418. The class given is cell-based. As to conditions: Haemophilus influenzae, sensitive disc media, read-out: MIC value (Minimum Inhibitory Concentration). The method, then:
as §1

Data set [2] concerns S. aureus Smith 4. Kind of data set: In vivo antibacterial activity: protection effect against infection with S. aureus Smith 4 in mice. The arrangement: species or system male ICR mice. As to conditions: oral, 1 hour after inoculation, 7 days. How it is done: The injection protection effect of the compound of the present invention against infectious bacteria (S. aureus Smith 4) was studied using 8 male ICR mice, 4-week-old, for each group and using Comparative drugs 1, 2 and 3 (as described in Experiment 1). Infectious bacteria (S. aureus Smith 4) were incubated for 18 hours, and diluted with a saline solution containing 5% mucin and heart infusion agar, and 0.5 ml of which was inoculated intraperitoneally to mice. An hour after inoculation of bacteria, the drug suspended in 5% gum arabic was administered orally, followed by judgement of life and death during 7 days.

The next data set has as its system E. faecalis CSJ 1212. Nature of the data set: In vitro antibacterial activity (MIC), E. faecalis CSJ 1212. The class given is cell-based. As to conditions: Enterococcus faecalis. How it is done:
as §1

The nature of data set [3]: Concentration in mouse serum after oral administration. As to conditions: dose not given; for AUC / Cmax: mouse serum; for concentration at 0.25 h / concentration at 0.5 h / concentration at 1 h / concentration at 2 h / concentration at 4 h / concentration at 6 h: mouse, serum; for concentration at 0.5 h: 0.50 hr. It is filed as in vivo, male ICR mice. The method, then: Concentration of the compound of the present invention in mouse serum was determined by using 10 male ICR mice, 4-week-old, for each group and using Comparative drugs 2 and 3 (as described in Experiment 1). The drug suspended in 5% gum arabic was administered orally to mice, the blood was collected with lapse of time, and the serum was separated. Concentration of the drug in the serum was measured by using M. luteus ATCC 9341 as approved bacteria according to the papar-disc method.

Setting [4] is: SMITH4, S. aureus Smith 4, sensitive disc media, read-out: MIC value (Minimum Inhibitory Concentration).
Where [5] appears, read: S. aureus B1, sensitive disc media, read-out: MIC value (Minimum Inhibitory Concentration).
The mark [6] stands for this setting: S. aureus 209P-JC, sensitive disc media.
Where [7] appears, read: CSJ1212, E. faecalis CSJ 1212, sensitive disc media, read-out: MIC value (Minimum Inhibitory Concentration).
The mark [8] stands for this setting: B1, read-out: MIC value (Minimum Inhibitory Concentration).

Structures are written as SMILES. ≈ marks a conversion by molar mass, not a printed value. Where two headings read alike, the source gives them in different places.

Regarding `CC[C@H]1OC(=O)[C@H](C)C(=O)[C@H](C)[C@@H](O[C@@H]2O[C@H](C)C[C@H](N(C)C)[C@H]2O)[C@](C)(OC)C[C@@H](C)C(=O)[C@H](C)[C@H]2N(CCN(C)Cc3ccccc3)C(=O)O[C@]12C` [Comparative drug 1, 3-deoxy-11-{2-[methyl(benzyl)amino]ethyl}amino-3-oxo-5-O-desosaminyl-6-O-methylerythronolide A 11-N,12-O-cyclic carbamate], the MIC in the data set with S. aureus 209P-JC (209P) stood at 0.1 µg/mL (≈ 0.132 µM); with S. aureus Smith 4 [1] (setting [4]) it was 0.1 µg/mL (≈ 0.132 µM); with S. aureus B1 (setting [5]) it was 0.39 µg/mL (≈ 0.513 µM); in the data set with H. influenzae ATCC19418, 6.25 µg/mL (≈ 8.22 µM); in the data set on E. faecalis CSJ 1212 (CSJ1212, read-out: MIC value (Minimum Inhibitory Concentration)) it was 0.1 µg/mL (≈ 0.132 µM). Also, the “Number of Survival (n = 8)” value with S. aureus Smith 4 [2] (0.1 mg/mouse) is recorded as 2; with S. aureus Smith 4 [2] (0.4 mg/mouse) it was 2; with S. aureus Smith 4 [2] (1.6 mg/mouse), 7.

The AUC is concentration integrated over time. In general, Cmax refers to the maximum level reached in the sampled fluid or tissue. Turning to `CC[C@H]1OC(=O)[C@H](C)C(=O)[C@H](C)[C@@H](O[C@@H]2O[C@H](C)C[C@H](N(C)C)[C@H]2O)[C@](C)(OC)C[C@@H](C)C(=O)[C@H](C)[C@H]2OC(=O)O[C@@]21C` [Comparative drug 2, 3-deoxy-3-oxo-5-O-desosaminyl-6-O-methylerythronolide A 11,12-cyclic carbonate], the MIC with S. aureus 209P-JC (setting [6]) was 0.1 µg/mL (≈ 0.163 µM); in the data set on S. aureus Smith 4 [1] (setting [4]) it was 0.1 µg/mL (≈ 0.163 µM); in the data set on S. aureus B1 (setting [5]), 1.56 µg/mL (≈ 2.54 µM); with H. influenzae ATCC19418, 25 µg/mL (≈ 40.7 µM); in the data set on E. faecalis CSJ 1212 (setting [7]) it was 0.05 µg/mL (≈ 0.0815 µM). Moreover, the “Number of Survival (n = 8)” value in the data set with S. aureus Smith 4 [2] (0.1 mg/mouse) is reported as 2; in the data set with S. aureus Smith 4 [2] (0.4 mg/mouse), 8; in the data set on S. aureus Smith 4 [2] (1.6 mg/mouse) it was 8. Further, in data set [3] (6 hr), the “Concentration in mouse serum” value worked out at 0 ng/mL. In addition, the AUC in data set [3] came to 1370 ng·h/mL. In addition, the Cmax in data set [3] was determined as 410 ng/mL. The molecule further came in with a concentration at 0.25 h in data set [3] of 310 ng/mL. In data set [3], this molecule yielded a concentration at 0.5 h of 410 ng/mL. In addition, in data set [3], the concentration at 1 h amounted to 270 ng/mL. In addition, the concentration at 2 h in data set [3] stood at 280 ng/mL. Besides, in data set [3], the concentration at 4 h was 260 ng/mL.

For the molecule `CC[C@H]1OC(=O)[C@H](C)[C@@H](O[C@H]2C[C@@](C)(OC)[C@@H](O)[C@H](C)O2)[C@H](C)[C@@H](O[C@@H]2O[C@H](C)C[C@H](N(C)C)[C@H]2O)[C@](C)(OC)C[C@@H](C)C(=O)[C@H](C)[C@@H](O)[C@]1(C)O` [Comparative drug 3, 6-O-methylerythromycin A], the MIC in the data set on S. aureus 209P-JC (setting [6]) was found to be 0.1 µg/mL (≈ 0.134 µM). The MIC in the data set with S. aureus Smith 4 [1] (setting [4]) was determined as 0.1 µg/mL (≈ 0.134 µM). Besides, the MIC with S. aureus B1 (setting [8]) is more than 100 µg/mL. The MIC in the data set on H. influenzae ATCC19418 came out at 12.5 µg/mL (≈ 16.7 µM). For the same molecule, the “Number of Survival (n = 8)” value in the data set on S. aureus Smith 4 [2] (0.1 mg/mouse) turned out to be 3. The “Number of Survival (n = 8)” value in the data set with S. aureus Smith 4 [2] (0.4 mg/mouse) is 6. In addition, the “Number of Survival (n = 8)” value with S. aureus Smith 4 [2] (1.6 mg/mouse) is 8. In addition, the MIC in the data set on E. faecalis CSJ 1212 (setting [7]) was 3.13 µg/mL (≈ 4.18 µM). Moreover, in data set [3], the AUC was found to be 880 ng·h/mL, the highest level (Cmax) was 340 ng/mL, the concentration at 0.25 h came to 290 ng/mL and the concentration at 0.5 h is 330 ng/mL. Also, in data set [3], the concentration at 1 h turned out to be 340 ng/mL, the concentration at 2 h was determined as 110 ng/mL and the concentration at 4 h stood at 110 ng/mL. This molecule also yielded a concentration at 6 h in data set [3] (6 hr) of 40 ng/mL.

For `CC[C@H]1OC(=O)[C@H](C)[C@@H](O[C@H]2C[C@@](C)(OC)[C@@H](O)[C@H](C)O2)[C@H](C)[C@@H](O[C@@H]2O[C@H](C)C[C@H](N(C)C)[C@H]2O)[C@](C)(O)C[C@@H](C)CN(C)[C@H](C)[C@@H](O)[C@]1(C)O` [Comparative drug 4, azithromycin], the MIC was 20 µg/mL (≈ 26.7 µM) in the data set with S. aureus 209P-JC (setting [6]); 0.39 µg/mL (≈ 0.521 µM) in the data set on S. aureus Smith 4 [1] (setting [4]); more than 100 µg/mL with S. aureus B1 (setting [5]); 6.25 µg/mL (≈ 8.34 µM) in the data set on H. influenzae ATCC19418; 6.25 µg/mL (≈ 8.34 µM) with E. faecalis CSJ 1212 (setting [7]).

Turning to `CC[C@H]1OC(=O)[C@H](C)C(=O)[C@H](C)[C@@H](O[C@@H]2O[C@H](C)C[C@H](N(C)C)[C@H]2O)[C@](C)(OC)C[C@@H](C)C(=O)[C@H](C)[C@H]2NC(=O)O[C@@]21C` [Compound 1, 11-amino-3,11-dideoxy-3-oxo-5-O-desosaminyl-6-O-methylerythronolide A 11-N,12-O-cyclic carbamate], in the data set with S. aureus 209P-JC (209P), the MIC was 0.05 µg/mL (≈ 0.0816 µM). Moreover, in the data set on S. aureus Smith 4 [1] (SMITH4, read-out: MIC value (Minimum Inhibitory Concentration)), the MIC amounted to 0.1 µg/mL (≈ 0.163 µM). Moreover, in the data set with S. aureus B1 (setting [8]), the MIC came out at 0.2 µg/mL (≈ 0.326 µM). In addition, in the data set with H. influenzae ATCC19418, the MIC was found to be 6.25 µg/mL (≈ 10.2 µM). In addition, in the data set on S. aureus Smith 4 [2] (0.1 mg/mouse), the “Number of Survival (n = 8)” value was found to be 8. Further, in the data set with S. aureus Smith 4 [2] (0.4 mg/mouse), the “Number of Survival (n = 8)” value was determined as 8. Further, the “Number of Survival (n = 8)” value in the data set on S. aureus Smith 4 [2] (1.6 mg/mouse) came out at 8. In the data set with E. faecalis CSJ 1212 (setting [7]), the MIC was determined as 0.05 µg/mL (≈ 0.0816 µM). In data set [3], this molecule registered an AUC of 2900 ng·h/mL, a Cmax of 1170 ng/mL, a concentration at 0.25 h of 230 ng/mL and a concentration at 0.5 h of 1170 ng/mL. In data set [3], the concentration at 1 h stood at 770 ng/mL, the concentration at 2 h worked out at 600 ng/mL and the concentration at 4 h came out at 440 ng/mL. Moreover, the concentration at 6 h in data set [3] (6 hr) was found to be 50 ng/mL.
